# Measured values as given in US20200000756A1, “NEOSTIGMINE COMBINATION AND COMPOSITIONS” (priority 2017, published 2020).
# “Also recorded” adds a separate entry of the source.
# Test: Phase I single-blind study: single oral doses of neostigmine bromide with or without a single oral dose of ondansetron hydrochloride dihydrate
# Format: in vivo
# Conditions: six human subjects
# Procedure: The ability of the 5HT3-antagonists for preventing the gastro-intestinal adverse effects of orally administered neostigmine bromide in humans was tested.
# A Phase I study was conducted in six human subjects receiving a single oral dose of neostigmine bromide with or without a single oral dose of ondansetron hydrochloride dihydrate, as a representative 5HT3-antagonist. The study was a single center, single-blind.
# To be enrolled in the study, participants (aged 18 to 60 years of age) were required, to refrain from consuming xanthine, quinine and caffeine containing beverages, and to refrain from prolonged intensive physical exercise during the study conduct. […] The key criteria for exclusion of a subject from enrollment in the study were as follows:
# any clinically relevant acute or chronic disease which could interfere with the subjects' safety during the trial, expose them to undue risk, or interfere with the study objectives; history or presence of gastrointestinal, hepatic, or renal disease or other condition known to interfere with the absorption, distribution, metabolism or excretion of drugs; history of substance abuse, known drug addiction, or positive test for drugs of abuse or alcohol; history of drug or other significant allergy; ECG changes including QT interval prolongation and congenital long QT syndrome. […]
compound,measurement,setting,value
"Cc1nccn1CC1CCc2c(c3ccccc3n2C)C1=O (racemic) [ondansetron, (±) 1,2,3,9-tetrahydro-9-methyl-3-[(2-methyl-1H-imidazol-1-yl)methyl]-4H-carbazol-4-one]",neostigmine dose reached before second intolerable dose (FID-2) on co-administration of ondansetron,neostigmine dose escalated together with oral ondansetron hydrochloride dihydrate 10 mg (8 mg base),enabled subjects to reach neostigmine doses as high as or higher than the recommended efficacious dose for the treatment of MG
same,gastro-intestinal AEs of neostigmine on co-administration of ondansetron,single oral ondansetron hydrochloride dihydrate 10 mg (equivalent to 8 mg ondansetron base) with oral neostigmine bromide at the first intolerable dose and above,attenuated gastro-intestinal AEs reported with neostigmine alone; also recorded: prevented the occurrence of gastro-intestinal AEs
